As usually defined, the AC50 is the midpoint of the concentration-response curve, whichever way the signal moves.

Some results are limits rather than exact numbers.

This note sets out measurements from ChEMBL document CHEMBL5291721, “A preclinical secondary pharmacology resource illuminates target-adverse drug reaction associations of marketed drugs” (Nat Commun, 2023).

Assay [1] has as its target T1, 5-hydroxytryptamine receptor 1A (Homo sapiens, UniProt P08908).
T1 sequence (P08908 whole entry): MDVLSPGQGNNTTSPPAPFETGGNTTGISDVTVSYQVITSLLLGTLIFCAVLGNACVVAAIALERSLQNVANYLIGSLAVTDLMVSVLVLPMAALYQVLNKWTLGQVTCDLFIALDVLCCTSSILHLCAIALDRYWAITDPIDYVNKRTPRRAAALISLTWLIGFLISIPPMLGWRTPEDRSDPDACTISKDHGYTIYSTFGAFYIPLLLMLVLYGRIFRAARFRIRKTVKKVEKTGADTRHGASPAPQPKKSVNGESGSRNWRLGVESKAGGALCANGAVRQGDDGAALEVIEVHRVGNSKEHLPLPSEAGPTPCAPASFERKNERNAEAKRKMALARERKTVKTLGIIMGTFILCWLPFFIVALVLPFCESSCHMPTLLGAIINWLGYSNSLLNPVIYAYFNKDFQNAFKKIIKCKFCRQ
The assay is classed as functional, cell-based.

Assay [2] concerns the target T2, Muscarinic acetylcholine receptor M2 (Homo sapiens, UniProt P08172).
T2 sequence (P08172 whole entry): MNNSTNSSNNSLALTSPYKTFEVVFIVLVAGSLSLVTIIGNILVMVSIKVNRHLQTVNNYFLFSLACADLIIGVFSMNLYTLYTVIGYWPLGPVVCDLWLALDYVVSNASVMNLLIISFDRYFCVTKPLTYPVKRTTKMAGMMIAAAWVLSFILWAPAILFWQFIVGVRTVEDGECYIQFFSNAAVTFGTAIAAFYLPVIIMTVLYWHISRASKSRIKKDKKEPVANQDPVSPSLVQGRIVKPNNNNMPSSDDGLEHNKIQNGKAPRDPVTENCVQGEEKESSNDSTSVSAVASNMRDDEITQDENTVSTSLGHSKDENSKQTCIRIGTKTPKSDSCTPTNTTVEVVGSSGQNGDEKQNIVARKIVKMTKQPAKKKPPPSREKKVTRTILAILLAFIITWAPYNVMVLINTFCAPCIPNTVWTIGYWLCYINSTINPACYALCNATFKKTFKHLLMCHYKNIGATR
It counts as functional, cell-based.

Assay [3] has as its target Growth hormone secretagogue receptor type 1 (Homo sapiens, UniProt Q92847).
Assay [4] deals with T3, Gamma-aminobutyric acid receptor subunit alpha-1 (Rattus norvegicus, UniProt P62813).
T3 sequence (P62813 whole entry): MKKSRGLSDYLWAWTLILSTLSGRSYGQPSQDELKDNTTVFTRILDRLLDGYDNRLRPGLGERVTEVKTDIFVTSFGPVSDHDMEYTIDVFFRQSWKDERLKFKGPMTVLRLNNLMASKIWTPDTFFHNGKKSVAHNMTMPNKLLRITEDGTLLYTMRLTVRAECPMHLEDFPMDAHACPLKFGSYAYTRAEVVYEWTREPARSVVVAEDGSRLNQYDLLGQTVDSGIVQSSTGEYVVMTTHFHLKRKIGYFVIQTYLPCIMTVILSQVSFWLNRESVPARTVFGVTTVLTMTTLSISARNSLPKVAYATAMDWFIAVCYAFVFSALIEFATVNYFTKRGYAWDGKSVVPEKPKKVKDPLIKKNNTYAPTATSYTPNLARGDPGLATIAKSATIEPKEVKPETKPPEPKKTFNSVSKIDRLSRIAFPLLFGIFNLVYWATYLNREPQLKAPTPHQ
Another assay has as its target Histamine H3 receptor (Homo sapiens, UniProt Q9Y5N1).
For a further assay, the target named is Adenosine receptor A2a (Homo sapiens, UniProt P29274).
Chain of Adenosine receptor A2a (P29274 whole entry): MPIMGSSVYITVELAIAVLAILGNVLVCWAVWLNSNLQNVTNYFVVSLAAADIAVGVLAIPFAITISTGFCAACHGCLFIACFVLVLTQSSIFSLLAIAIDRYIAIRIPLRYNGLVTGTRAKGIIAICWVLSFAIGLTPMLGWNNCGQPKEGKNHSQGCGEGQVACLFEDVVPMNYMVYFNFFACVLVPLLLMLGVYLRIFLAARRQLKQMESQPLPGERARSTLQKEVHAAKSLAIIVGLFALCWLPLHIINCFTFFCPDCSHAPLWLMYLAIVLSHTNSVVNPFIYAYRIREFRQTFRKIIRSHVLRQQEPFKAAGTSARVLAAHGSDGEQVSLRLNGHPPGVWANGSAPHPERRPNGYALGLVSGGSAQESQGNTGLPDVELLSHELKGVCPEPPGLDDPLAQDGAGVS
The target in assay [5] is Beta-2 adrenergic receptor (Homo sapiens, UniProt P07550).
Chain of Beta-2 adrenergic receptor (P07550 whole entry): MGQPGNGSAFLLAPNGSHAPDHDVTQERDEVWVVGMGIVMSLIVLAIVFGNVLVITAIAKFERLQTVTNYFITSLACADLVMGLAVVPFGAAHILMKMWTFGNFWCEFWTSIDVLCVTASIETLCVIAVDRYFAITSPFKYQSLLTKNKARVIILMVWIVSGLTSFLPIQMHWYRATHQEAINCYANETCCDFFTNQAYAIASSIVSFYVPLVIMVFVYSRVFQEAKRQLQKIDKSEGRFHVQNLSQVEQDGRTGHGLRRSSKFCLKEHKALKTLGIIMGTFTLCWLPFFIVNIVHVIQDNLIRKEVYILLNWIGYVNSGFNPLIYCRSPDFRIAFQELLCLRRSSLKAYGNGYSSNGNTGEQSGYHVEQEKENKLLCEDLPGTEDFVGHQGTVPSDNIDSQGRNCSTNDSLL
Assay [6] has as its target Voltage-dependent L-type calcium channel subunit alpha-1C (Rattus norvegicus, UniProt P22002). It counts as functional.
The target in assay [7] is T3, Gamma-aminobutyric acid receptor subunit alpha-1. The assay is classed as functional.
For a further assay, the target named is T4, Progesterone receptor (Homo sapiens, UniProt P06401).
T4 sequence (P06401 whole entry): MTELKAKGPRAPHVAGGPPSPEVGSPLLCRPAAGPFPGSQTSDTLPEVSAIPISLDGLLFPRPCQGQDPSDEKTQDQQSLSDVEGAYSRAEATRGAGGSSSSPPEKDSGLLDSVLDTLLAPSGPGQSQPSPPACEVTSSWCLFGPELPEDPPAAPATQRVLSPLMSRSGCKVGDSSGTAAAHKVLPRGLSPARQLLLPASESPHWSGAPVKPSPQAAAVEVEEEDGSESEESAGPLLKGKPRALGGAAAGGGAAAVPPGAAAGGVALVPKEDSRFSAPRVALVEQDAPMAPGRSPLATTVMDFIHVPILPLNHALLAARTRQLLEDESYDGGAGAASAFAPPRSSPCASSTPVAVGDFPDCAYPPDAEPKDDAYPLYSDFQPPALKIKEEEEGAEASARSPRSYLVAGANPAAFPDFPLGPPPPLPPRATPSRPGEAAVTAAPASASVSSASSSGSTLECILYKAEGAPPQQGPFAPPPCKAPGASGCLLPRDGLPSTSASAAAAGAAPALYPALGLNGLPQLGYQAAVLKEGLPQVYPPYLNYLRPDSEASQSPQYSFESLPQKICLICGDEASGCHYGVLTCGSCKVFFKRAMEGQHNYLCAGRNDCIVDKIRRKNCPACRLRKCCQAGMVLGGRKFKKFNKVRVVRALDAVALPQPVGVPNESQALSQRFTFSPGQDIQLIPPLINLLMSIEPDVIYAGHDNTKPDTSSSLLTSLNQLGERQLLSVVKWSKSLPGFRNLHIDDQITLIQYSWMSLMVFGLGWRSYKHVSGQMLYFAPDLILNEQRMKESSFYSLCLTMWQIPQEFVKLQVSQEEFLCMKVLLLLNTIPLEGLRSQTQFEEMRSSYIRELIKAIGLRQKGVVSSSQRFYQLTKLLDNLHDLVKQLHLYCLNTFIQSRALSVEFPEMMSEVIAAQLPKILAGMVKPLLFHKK
The assay is classed as functional.

For another assay, the target named is T5, Glucocorticoid receptor (Homo sapiens, UniProt P04150).
T5 sequence (P04150 whole entry): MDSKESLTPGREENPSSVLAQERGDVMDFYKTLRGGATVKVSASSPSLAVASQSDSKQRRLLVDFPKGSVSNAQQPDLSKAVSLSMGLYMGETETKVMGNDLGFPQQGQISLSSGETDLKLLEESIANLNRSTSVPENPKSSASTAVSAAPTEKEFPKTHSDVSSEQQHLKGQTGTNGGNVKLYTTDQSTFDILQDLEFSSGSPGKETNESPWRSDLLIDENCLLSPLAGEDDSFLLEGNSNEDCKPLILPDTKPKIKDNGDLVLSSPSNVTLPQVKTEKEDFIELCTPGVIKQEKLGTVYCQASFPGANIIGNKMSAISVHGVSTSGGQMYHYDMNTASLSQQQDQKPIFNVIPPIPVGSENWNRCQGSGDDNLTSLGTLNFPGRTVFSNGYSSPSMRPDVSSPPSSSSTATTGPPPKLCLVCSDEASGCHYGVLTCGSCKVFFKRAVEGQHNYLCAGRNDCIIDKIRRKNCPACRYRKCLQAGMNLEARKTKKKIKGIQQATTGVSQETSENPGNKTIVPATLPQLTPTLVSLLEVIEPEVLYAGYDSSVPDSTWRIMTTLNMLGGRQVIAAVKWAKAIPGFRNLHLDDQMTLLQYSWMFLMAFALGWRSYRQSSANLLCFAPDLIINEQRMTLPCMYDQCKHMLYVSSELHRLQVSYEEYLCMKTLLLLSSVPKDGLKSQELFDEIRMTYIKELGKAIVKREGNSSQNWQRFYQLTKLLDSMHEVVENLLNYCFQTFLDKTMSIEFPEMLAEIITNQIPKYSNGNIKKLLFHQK
Further: assay procedure not described here.

Chain of Voltage-dependent L-type calcium channel subunit alpha-1C (P22002 whole entry): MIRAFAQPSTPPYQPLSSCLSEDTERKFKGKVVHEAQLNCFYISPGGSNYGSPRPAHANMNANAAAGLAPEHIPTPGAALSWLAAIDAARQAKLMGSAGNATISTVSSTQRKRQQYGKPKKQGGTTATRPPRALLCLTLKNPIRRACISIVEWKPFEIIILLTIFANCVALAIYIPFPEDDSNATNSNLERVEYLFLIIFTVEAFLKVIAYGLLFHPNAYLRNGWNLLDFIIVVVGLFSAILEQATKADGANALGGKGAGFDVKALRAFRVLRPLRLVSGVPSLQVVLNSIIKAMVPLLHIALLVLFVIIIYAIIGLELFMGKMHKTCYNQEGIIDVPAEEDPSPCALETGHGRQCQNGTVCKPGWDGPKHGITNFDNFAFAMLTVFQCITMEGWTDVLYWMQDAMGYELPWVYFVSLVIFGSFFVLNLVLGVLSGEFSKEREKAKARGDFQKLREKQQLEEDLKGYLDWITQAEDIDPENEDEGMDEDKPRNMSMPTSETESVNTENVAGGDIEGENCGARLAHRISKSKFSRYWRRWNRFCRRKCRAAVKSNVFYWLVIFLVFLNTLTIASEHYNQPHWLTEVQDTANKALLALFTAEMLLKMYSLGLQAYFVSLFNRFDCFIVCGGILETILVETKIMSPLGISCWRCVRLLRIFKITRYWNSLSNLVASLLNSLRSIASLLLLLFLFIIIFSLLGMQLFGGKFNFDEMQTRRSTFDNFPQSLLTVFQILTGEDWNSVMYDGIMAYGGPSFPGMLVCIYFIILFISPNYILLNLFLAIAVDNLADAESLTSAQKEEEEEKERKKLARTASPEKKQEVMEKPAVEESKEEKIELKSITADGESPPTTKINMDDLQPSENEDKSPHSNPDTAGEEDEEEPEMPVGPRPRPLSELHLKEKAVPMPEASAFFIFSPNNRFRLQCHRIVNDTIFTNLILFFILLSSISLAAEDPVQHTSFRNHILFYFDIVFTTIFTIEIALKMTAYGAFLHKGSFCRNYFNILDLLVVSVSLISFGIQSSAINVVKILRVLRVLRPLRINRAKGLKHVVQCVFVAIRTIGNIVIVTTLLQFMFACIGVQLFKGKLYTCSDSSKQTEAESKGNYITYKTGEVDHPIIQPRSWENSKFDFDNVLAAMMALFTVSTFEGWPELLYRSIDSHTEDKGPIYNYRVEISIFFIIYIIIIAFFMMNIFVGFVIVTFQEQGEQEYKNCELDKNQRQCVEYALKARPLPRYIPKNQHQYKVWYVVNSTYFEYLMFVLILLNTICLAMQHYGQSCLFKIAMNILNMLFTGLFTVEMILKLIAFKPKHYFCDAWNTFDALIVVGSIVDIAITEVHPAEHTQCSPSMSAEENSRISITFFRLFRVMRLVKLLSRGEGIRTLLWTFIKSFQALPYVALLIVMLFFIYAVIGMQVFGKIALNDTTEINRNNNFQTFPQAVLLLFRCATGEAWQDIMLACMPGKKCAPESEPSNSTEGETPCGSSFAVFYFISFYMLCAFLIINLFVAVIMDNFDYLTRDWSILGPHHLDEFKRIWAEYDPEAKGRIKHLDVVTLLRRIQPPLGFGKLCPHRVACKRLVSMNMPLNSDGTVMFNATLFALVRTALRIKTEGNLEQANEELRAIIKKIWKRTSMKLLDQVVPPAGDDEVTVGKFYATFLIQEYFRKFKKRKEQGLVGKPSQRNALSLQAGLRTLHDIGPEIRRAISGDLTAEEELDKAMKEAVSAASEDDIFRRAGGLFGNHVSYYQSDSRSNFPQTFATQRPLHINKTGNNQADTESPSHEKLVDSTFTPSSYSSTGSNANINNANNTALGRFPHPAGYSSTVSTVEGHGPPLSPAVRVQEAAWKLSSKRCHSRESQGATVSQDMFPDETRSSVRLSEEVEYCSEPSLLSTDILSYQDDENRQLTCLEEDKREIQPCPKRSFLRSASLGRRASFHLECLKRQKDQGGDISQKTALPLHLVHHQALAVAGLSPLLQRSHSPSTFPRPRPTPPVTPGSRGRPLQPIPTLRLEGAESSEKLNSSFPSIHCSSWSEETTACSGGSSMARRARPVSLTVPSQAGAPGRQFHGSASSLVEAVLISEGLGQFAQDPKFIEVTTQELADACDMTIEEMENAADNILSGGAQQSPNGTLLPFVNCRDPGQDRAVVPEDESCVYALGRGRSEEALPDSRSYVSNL
Chain of Histamine H3 receptor (Q9Y5N1 whole entry): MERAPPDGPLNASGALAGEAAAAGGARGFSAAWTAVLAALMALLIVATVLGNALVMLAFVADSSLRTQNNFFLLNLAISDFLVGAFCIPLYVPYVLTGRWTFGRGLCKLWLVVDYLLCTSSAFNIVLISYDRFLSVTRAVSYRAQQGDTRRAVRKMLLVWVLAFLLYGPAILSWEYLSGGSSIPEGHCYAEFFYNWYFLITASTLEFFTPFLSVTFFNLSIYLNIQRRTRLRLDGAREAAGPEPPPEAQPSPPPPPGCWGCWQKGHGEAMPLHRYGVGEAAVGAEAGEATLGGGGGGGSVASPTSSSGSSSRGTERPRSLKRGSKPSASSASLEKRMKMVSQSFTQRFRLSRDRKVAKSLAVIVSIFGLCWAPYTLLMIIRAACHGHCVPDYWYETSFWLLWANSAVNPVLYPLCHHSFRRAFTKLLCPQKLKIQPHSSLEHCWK
Chain of Growth hormone secretagogue receptor type 1 (Q92847 whole entry): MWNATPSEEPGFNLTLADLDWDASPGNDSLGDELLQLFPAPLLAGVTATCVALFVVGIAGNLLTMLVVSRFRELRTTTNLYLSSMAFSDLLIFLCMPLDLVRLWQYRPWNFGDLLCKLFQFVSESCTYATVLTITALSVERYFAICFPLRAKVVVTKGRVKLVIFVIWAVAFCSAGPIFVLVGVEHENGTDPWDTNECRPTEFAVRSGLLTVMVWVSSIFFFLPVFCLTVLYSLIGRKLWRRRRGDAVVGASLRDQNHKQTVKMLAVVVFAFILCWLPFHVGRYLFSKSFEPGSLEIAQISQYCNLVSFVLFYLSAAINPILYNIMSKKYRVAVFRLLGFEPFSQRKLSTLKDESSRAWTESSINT

Consider `COc1ccc(-c2ccc3cc(C(=O)O)ccc3c2)cc1C12CC3CC(CC(C3)C1)C2`, for which the AC50 (in assay [1]; in [2]; in [3]; in [4]; on Histamine H3 receptor; at Adenosine receptor A2a) was more than 30 µM in each case. In addition, the AC50 in assay [5] is more than 30 µM; in assay [6], 1.5 µM; in [7], more than 30 µM; on Progesterone receptor it was 4.2 µM.
As to `CNS(=O)(=O)Cc1ccc2[nH]cc(CCN(C)C)c2c1`, the AC50 was more than 30 µM in [2]; more than 30 µM in assay [3]; more than 30 µM in assay [4]; more than 30 µM at Adenosine receptor A2a; more than 10 µM in assay [5]; more than 30 µM at Glucocorticoid receptor. Also, the figures for the half-maximal activity concentration (AC50) in [6] and in assay [7] were more than 10 µM and more than 30 µM, respectively.
Consider `COc1ccccc1N1CCN(CCCNc2cc(=O)n(C)c(=O)n2C)CC1`, for which the AC50 in [2] was more than 30 µM; in assay [3], more than 30 µM; in [4], more than 30 µM; at Histamine H3 receptor, more than 30 µM; at Adenosine receptor A2a, more than 30 µM; in [5], 0.8 µM. Further, the AC50 (in [6]; in assay [7]; at Progesterone receptor) was more than 30 µM throughout.
For `CCOC(=O)[C@H](CCc1ccccc1)N[C@@H](C)C(=O)N1C(=O)N(C)C[C@H]1C(=O)O`, the AC50 (in assay [1]; in [2]; in assay [3]; in [4]; on Histamine H3 receptor; on Adenosine receptor A2a) was more than 30 µM in each case. The AC50 (in assay [5]; in assay [6]; in [7]; on Progesterone receptor) was more than 30 µM throughout.
Regarding `CC(C)(C)C(=O)Oc1ccc(S(=O)(=O)Nc2ccccc2C(=O)NCC(=O)O)cc1`, the AC50 (in assay [1]; in [2]; in assay [3]; in [4]; on Histamine H3 receptor; on Adenosine receptor A2a) was more than 30 µM in each case. Also, the AC50 (in assay [5]; in assay [6]; in assay [7]; on Progesterone receptor) was more than 30 µM throughout.
Consider `CC1(C)O[C@@H]2C[C@H]3[C@@H]4CCC5=CC(=O)C=C[C@]5(C)[C@H]4[C@@H](O)C[C@]3(C)[C@]2(C(=O)CO)O1` [DESONIDE], for which the half-maximal activity concentration (AC50) (in assay [1]; in assay [2]; in assay [3]; in [4]; at Adenosine receptor A2a; in [5]) was more than 10 µM in each case. Moreover, the AC50 at Glucocorticoid receptor was 0.016 µM; in assay [6], more than 10 µM; in [7] it was more than 10 µM.
On to `Cn1c(=O)c2c(ncn2CC2OCCO2)n(C)c1=O` [DOXOFYLLINE], for which the AC50 (in [1]; in assay [2]; in [3]; in assay [4]; on Histamine H3 receptor; at Adenosine receptor A2a) was more than 30 µM each time. Moreover, the AC50 (in assay [5]; in [6]; in assay [7]; on Progesterone receptor) was more than 30 µM in each case.
As to `C[C@]1(O)CC[C@H]2[C@@H]3CCC4=CC(=O)CC[C@]4(C)[C@@]3(F)[C@@H](O)C[C@@]21C` [FLUOXYMESTERONE], the AC50 (in assay [1]; in [2]; in assay [3]; in assay [4]; at Adenosine receptor A2a; in assay [5]) was more than 10 µM each time. Moreover, the AC50 on Glucocorticoid receptor was 0.088 µM; in [6], more than 10 µM; in [7], more than 10 µM.
Consider `CCCC(=O)O[C@]1(C(=O)CO)CC[C@H]2[C@@H]3CCC4=CC(=O)CC[C@]4(C)[C@H]3[C@@H](O)C[C@@]21C` [HYDROCORTISONE BUTYRATE], for which the AC50 (in [1]; in assay [2]; in [3]; in [4]; at Adenosine receptor A2a; in [5]) was more than 10 µM throughout. In addition, the AC50 on Glucocorticoid receptor was 0.008 µM; in assay [6], more than 10 µM; in assay [7], more than 10 µM.
Consider `CC(C)C(=O)c1c(C(C)C)nn2ccccc12` [IBUDILAST], for which the AC50 in assay [1] is more than 30 µM; in assay [2], more than 30 µM; in assay [3], more than 30 µM; in assay [4], more than 30 µM; on Histamine H3 receptor it was more than 30 µM; at Adenosine receptor A2a, 17 µM. Further, the AC50 in assay [5] is more than 30 µM; in [6] it was more than 30 µM; in assay [7] it was 5.7 µM; on Progesterone receptor, more than 30 µM.
Consider `CC(CC(c1ccccc1)c1ccccc1)NC(C)(C)C` (centres undefined) [TERODILINE], for which the AC50 (in assay [1]; in assay [2]; in assay [3]; in assay [4]; on Histamine H3 receptor; on Adenosine receptor A2a) was more than 30 µM throughout. In addition, the AC50 (in assay [5]; in assay [6]; in assay [7]; on Progesterone receptor) was more than 30 µM throughout.
Consider `CC(=O)O[C@H]1C[C@@H]2CC[C@@H]3[C@H](CC[C@@]4(C)[C@H]3C[C@H]([N+]3(C)CCCCC3)[C@@H]4OC(C)=O)[C@@]2(C)C[C@@H]1N1CCCCC1` [VECURONIUM], for which the AC50 is more than 30 µM in [1]; more than 30 µM in assay [2]; more than 30 µM in assay [3]; more than 30 µM in assay [4]; 18 µM on Histamine H3 receptor; more than 30 µM on Adenosine receptor A2a. Besides, the AC50 (in assay [5]; in [6]; in assay [7]; on Progesterone receptor) was more than 30 µM each time.
